Laboratory results as given in PMC12064607 (Clinical Pharmacokinetics, 2025).
Read-outs that look alike come from different tables or passages of the source.

Columns and labels:
Omicron = conditions: A549-ACE2-TMPRSS, Nucleoprotein ELISA, ref Pitts et al[4]; cited from earlier work
Delta = conditions: A549-ACE2-TMPRSS, Nucleoprotein ELISA, ref Pitts et al[4]; cited from earlier work
[1] = system: BetaCoV/Belgium/GHB-03021/2020; conditions: cited from earlier work
[2] = human, in vivo
plasma protein = conditions: cited from earlier work
Omicron/BA.2 = system: Omicron/BA.2; design: method as in Takashita et al[5]; conditions: Vero E6, Focus reduction, ref Takashita et al[5]; cited from earlier work
[3] = plasma samples; cited from earlier work
WA1 = system: WA1; design: method as in Pitts et al[4]; conditions: A549-ACE2-TMPRSS, Nucleoprotein ELISA, ref Pitts et al[4]; cited from earlier work
clinical = conditions: human, in vivo
[4] = system: BetaCoV/France/IDF0571/2020; conditions: cited from earlier work
[5] = system: nCoV-2019BetaCoV/Wuhan/WIV04/2019; conditions: cited from earlier work
[6] = human, in vivo; cited from earlier work

## N#C[C@@]1(c2ccc3c(N)ncnn23)O[C@H](CO)[C@@H](O)[C@H]1O [GS-441524]
Omicron
  EC50: 3150 nM
Delta
  EC50: 3260 nM
[1]
  EC50: 510 nM
[2]
  Age effect on V, bootstrap median: –1.18
  Age effect on V, final model mean: –1.15
  V/fm, bootstrap median: 429 L
  V/fm, final model mean: 429 L
  eGFR effect on CL, bootstrap median: 1.23
  eGFR effect on CL, final model mean: 1.12
Plasma protein
  protein binding: 2%
Omicron/BA.2
  EC50: 2850 nM
[3]
  stable at room temperature: 48 h
WA1
  EC50: 5600 nM
clinical; CL/fm, bootstrap median
  clearance: 267 mL/min
clinical; CL/fm, final model mean
  clearance: 265 mL/min

## CCC(CC)COC(=O)[C@H](C)N[P@](=O)(OC[C@H]1O[C@@](C#N)(c2ccc3c(N)ncnn23)[C@H](O)[C@@H]1O)Oc1ccccc1 [Remdesivir, reference compound]
Omicron
  EC50: 42 nM
Delta
  EC50: 70 nM
[1]
  EC50: 48 nM
[2]
  V, bootstrap median: 111 L
Plasma protein; human
  protein binding: 97%
[4]
  EC50: 990 nM
[5]
  EC50: 770 nM
  EC90: 1760 nM
[6]
  clearance: 207 L/h
clinical; CL, bootstrap median
  clearance: 1670 mL/min
clinical; iv, CL, final model mean
  clearance: 1600 mL/min
